Source: patent US20240166669A1, “QUINAZOLINE AMINE DERIVATIVES AS KRAS INHIBITORS” (Nikang Therapeutics, Inc., priority 2021, published 2024)

molecular target: T1, K-Ras G12D (Homo sapiens, UniProt P01116, G12D); test: p-ERK Cellular 2-Plate Assay (Biological Example 2); type: cell-based; details: AGS cells (KRAS G12D), 3 h treatment, AlphaLISA p-ERK1/2, 2-plate; Biological Example 2 (unmarked values); read-out: AGS PERK EC50
T1 construct: AGS (Cobioer, CBP60476) cell lines which harbor KRAS G12D mutation; host or cells: AGS
Protocol: (§1) The ability of the compound of Formula (IIA′), (II′), or (II) or a pharmaceutically acceptable salt thereof (test compound) to inhibit K-Ras G12D activity was tested using AGS (Cobioer, CBP60476) cell lines which harbor KRAS G12D mutation as described below.
(§2) AGS (Cobioer, CBP60476) were seeded in 384-well plates and cultured overnight (10.000 cells per well 40 μl total volume). The following morning, cells were treated with test compound, with staring concentration at 10 μM and 3-fold dilution down to 0.5 nM for 3 h at 37° C., DMSO treatment served as control. p-ERK was then measured using AlphaLISA SureFire Ultra p-ERK1/2 (Thr202/Tyr204) Assay Kit (Perkin Elmer, cat #ALSU-PERK) following the manufacturer's instruction as follows.
Briefly, the culture medium was removed and 20 μl 1× lysis buffer was added to each well, followed by 30 minutes incubation on a plate shaker at room temperature. Then 10 μl of lysate was transferred to a white 384-well plate. Acceptor mixture was prepared according to manufacturer's instruction. 5 μl acceptor mixture was added to the cell lysate and the plate was wrapped with foil, spun at 500 rpm for 10 s, and incubated at RT for 60 min. Donor mixture was prepared under subdued light. 5 μl donor mixture was added to the cell lysate and the plate was spun at 500 rpm for 10s and incubated at RT for another 60 min. in the dark. Signal was then measured on a EnVision 2105 multimode plate reader. Percentage inhibition was calculated with DMSO treatment as 100% of signal, and IC50 was calculated by XLfit 5.5.x.

T1 sequence (P01116 1-188 isoform P01116-2 G12D): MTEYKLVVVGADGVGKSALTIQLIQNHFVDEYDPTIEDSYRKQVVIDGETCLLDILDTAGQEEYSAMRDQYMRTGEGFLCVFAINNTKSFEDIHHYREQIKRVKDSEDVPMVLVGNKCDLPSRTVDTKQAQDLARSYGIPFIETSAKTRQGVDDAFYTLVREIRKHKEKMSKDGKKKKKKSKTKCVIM

| SMILES | EC50 [nM] |
| --- | --- |
| C#Cc1c(F)ccc2cccc(-c3c(Cl)cc4c(N5C[C@H]6CC[C@@H](C5)N6)nc(OCC56CCCN5CC(=C)C6)nc4c3F)c12 (stereo partly drawn) [Example 55, 4-((1R,5S)-3,8-diazabicyclo[3.2.1]octan-3-yl)-6-chloro-7-(8-ethynyl-7-fluoronaphthalen-1-yl)-8-fluoro-2-((2-methylenetetrahydro-1H-pyrrolizin-7a(5H)-yl)methoxy)quinazoline] | > 100 |
| C#Cc1cccc2cc(O)cc(-c3c(Cl)cc4c(N5C[C@H]6CC[C@@H](C5)N6)nc(OCC56CCCN5CC(=C)C6)nc4c3F)c12 (stereo partly drawn) [Example 56, 4-(4-((1R,5S)-3,8-diazabicyclo[3.2.1]octan-3-yl)-6-chloro-8-fluoro-2-((2-methylenetetrahydro-1H-pyrrolizin-7a(5H)-yl)methoxy)quinazolin-7-yl)-5-ethynylnaphthalen-2-ol] | 1.3 |

molecular target: T1, K-Ras G12D; test: p-ERK Cellular 1-Plate Assay (Biological Example 3); type: cell-based; details: AGS cells (KRAS G12D), 3 h treatment, AlphaLISA p-ERK1/2, 1-plate; Biological Example 3 (values marked *); read-out: AGS PERK EC50
Protocol: as §1
as §2, with “overnight (5,000” for “overnight (10.000”, “per well,” for “per well”, “with starting” for “with staring”, “at […].” for “at 37° C.,”, “control. pERK” for “control. p-ERK”, “Ultra p-ERK/2” for “Ultra p-ERK1/2”
Briefly, the culture medium was removed and 10 μl 1× lysis buffer was added to each well, followed by 10 minutes incubation on a plate shaker at room temperature. Acceptor mixture was prepared according to manufacturer's instruction. 5 μl acceptor mixture was added to the cell lysate and the plate was wrapped with foil, spun at 500 rpm for 10s and incubated at RT for 60 min. Donor mixture was prepared under subdued light. 5 μl donor mixture was added to the cell lysate and the plate was spun at 500 rpm for 10s and incubated at RT for another 60 min. in the dark.

| SMILES | EC50 [nM] |
| --- | --- |
| C#Cc1c(F)ccc2cc(O)cc(-c3ncc4c(N5C[C@H]6CC[C@@H](C5)N6)nc(OCC56CCCCN5CC(=C)C6)nc4c3F)c12 (stereo partly drawn) [Example 43, 4-(4-((1R,5S)-3,8-diazabicyclo[3.2.1]octan-3-yl)-8-fluoro-2-((2-methylenehexahydroindolizin-8a(1H)-yl)methoxy)pyrido[4,3-d]pyrimidin-7-yl)-5-ethynyl-6-fluoronaphthalen-2-ol] | 18 |
| C#Cc1c(F)ccc2cc(O)cc(-c3ncc4c(N5C[C@H]6CC[C@@H](C5)N6)nc(OCC56CCCCCN5CC(=C)C6)nc4c3F)c12 (stereo partly drawn) [Example 44, 4-(4-((1R,5S)-3,8-diazabicyclo[3.2.1]octan-3-yl)-8-fluoro-2-((2-methylenehexahydro-1H-pyrrolo[1,2-a]azepin-9a(5H)-yl)methoxy)pyrido[4,3-d]pyrimidin-7-yl)-5-ethynyl-6-fluoronaphthalen-2-ol] | > 100 |
| C#Cc1c(F)ccc2cc(O)cc(-c3ncc4c(N5C[C@H]6CC[C@@H](C5)N6)nc(OC[C@@H]5CC(=C)CN5C)nc4c3F)c12 [Example 46, 4-(4-((1R,5S)-3,8-diazabicyclo[3.2.1]octan-3-yl)-8-fluoro-2-(((S)-1-methyl-4-methylenepyrrolidin-2-yl)methoxy)pyrido[4,3-d]pyrimidin-7-yl)-5-ethynyl-6-fluoronaphthalen-2-ol] | 5.3 |
| C#Cc1c(F)ccc2cccc(-c3ncc4c(N5C[C@H]6CC[C@@H](C5)N6)nc(OCC56CC(=C)CN5CC(=C)C6)nc4c3F)c12 [Example 47, 4-((1R,5S)-3,8-diazabicyclo[3.2.1]octan-3-yl)-2-((2,6-dimethylenetetrahydro-1H-pyrrolizin-7a(5H)-yl)methoxy)-7-(8-ethynyl-7-fluoronaphthalen-1-yl)-8-fluoropyrido[4,3-d]pyrimidine] | 52 |
| C#Cc1c(F)ccc2cccc(-c3ncc4c(N5C[C@H]6CC[C@@H](C5)N6)nc(OCC56CCCN5CC(=C)CC6)nc4c3F)c12 (stereo partly drawn) [Example 50, 4-((1R,5S)-3,8-diazabicyclo[3.2.1]octan-3-yl)-7-(8-ethynyl-7-fluoronaphthalen-1-yl)-8-fluoro-2-((6-methylenehexahydroindolizin-8a(1H)-yl)methoxy)-pyrido[4,3-d]pyrimidine] | 213 |
| C#Cc1c(F)ccc2cccc(-c3ncc4c(N5C[C@H]6CC[C@@H](C5)N6)nc(OCC56CCCCN5CC(=C)C6)nc4c3F)c12 (stereo partly drawn) [Example 51, 4-((1R,5S)-3,8-diazabicyclo[3.2.1]octan-3-yl)-7-(8-ethynyl-7-fluoronaphthalen-1-yl)-8-fluoro-2-((2-methylenehexahydroindolizin-8a(1H)-yl)methoxy)pyrido[4,3-d]pyrimidine] | 836 |
| C#Cc1c(F)ccc2cccc(-c3ncc4c(N5C[C@H]6CC[C@@H](C5)N6)nc(OCC56CCCCCN5CC(=C)C6)nc4c3F)c12 (stereo partly drawn) [Example 52, 4-((1R,5S)-3,8-diazabicyclo[3.2.1]octan-3-yl)-7-(8-ethynyl-7-fluoronaphthalen-1-yl)-8-fluoro-2-((2-methylenehexahydro-1H-pyrrolo[1,2-a]azepin-9a(5H)-yl)methoxy)pyrido[4,3-d]pyrimidine] | > 100 |
| C#Cc1c(F)ccc2cc(O)cc(-c3ncc4c(N5C[C@H]6CC[C@H](N6)C5C)nc(OCC56CCCN5CC(=C)C6)nc4c3F)c12 (stereo partly drawn) [Example 54, 5-ethynyl-6-fluoro-4-(8-fluoro-4-((1S,5R)-2-methyl-3,8-diazabicyclo[3.2.1]octan-3-yl)-2-((2-methylene-tetrahydro-1H-pyrrolizin-7a(5H)-yl)methoxy)-pyrido[4,3-d]pyrimidin-7-yl)naphthalen-2-ol] | 1.4 |
